Data reported in ChEMBL document CHEMBL1201862, “PubChem BioAssay data set” (2004).
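Cells were grown in 96-well plates and exposed to each compound for 48 hours at five concentrations; endpoints were interpolated linearly between bracketing concentrations, or set to the highest concentration if not reached. The concentration for 50% growth inhibition is given as GI50.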 Active and inactive are the calls of the source. Rule as the data show it: active = GI50 up to about 1.1 µM and inactive = higher.

Columns and labels:
Experiment in all cases: DTP human tumour cell line panel, 48 h
[1] = system: OVCAR-5
[2] = system: SF-539
[3] = system: U-251
[4] = system: A549
[5] = system: IGROV-1
[6] = system: SW-620
[7] = system: HOP-62
[8] = system: COLO 205
[9] = system: UO-31
[10] = system: MDA-MB-231
[11] = system: A498
[12] = system: OVCAR-3
[13] = system: ACHN
[14] = system: MDA-N
[15] = system: BT-549
[16] = system: RPMI-8226
[17] = system: Hs-578T
[18] = system: HCT-15
[19] = system: NCI-H522
[20] = system: LOX IMVI

Measured: GI50

CC(C)(C)[Si](C)(C)OCCC1CC2(S(=O)(=O)C3=CC=C=C=C3)ON1CC2S(=O)(=O)c1ccccc1 (stereo not given)
inactive: [1] > 10 µM | [2] > 10 µM | [3] > 100 µM | [4] > 10 µM | [5] > 10 µM | [6] > 10 µM | [7] > 10 µM | [8] > 10 µM | [9] > 10 µM | [10] > 10 µM | [11] > 10 µM | [12] > 10 µM | [13] > 10 µM | [14] > 10 µM | [15] > 10 µM | [16] > 10 µM | [17] > 10 µM

COc1cc(NC(C)CCCN)c2nccc(C)c2c1 (stereo not given)
21.3 µM: [18]
inactive: [1] 96.4 µM | [2] 17.5 µM | [3] 19.6 µM | [4] 55.7 µM | [5] 16.5 µM | [7] 17.1 µM | [8] 14.3 µM | [9] 15.6 µM | [10] > 10 µM | [12] 23.1 µM | [13] 26.6 µM | [14] 18.9 µM | [15] 15.8 µM | [16] 20.9 µM | [19] 17.5 µM | [17] 26.8 µM

Oc1ccc(Oc2cc3c(cc2Oc2ccc(O)cc2)-c2nc-3nc3[nH]c(nc4nc(nc5[nH]c(n2)c2cc(Oc6ccc(O)cc6)c(Oc6ccc(O)cc6)cc52)-c2cc(Oc5ccc(O)cc5)c(Oc5ccc(O)cc5)cc2-4)c2cc(Oc4ccc(O)cc4)c(Oc4ccc(O)cc4)cc32)cc1
> 100 µM: [18]
inactive: [1] 85.5 µM | [20] 39.9 µM | [2] > 100 µM | [3] > 100 µM | [4] > 100 µM | [5] > 100 µM | [6] > 100 µM | [7] > 100 µM | [8] > 100 µM | [9] > 100 µM | [10] 23.5 µM | [12] > 100 µM | [13] > 100 µM | [14] > 100 µM | [15] > 100 µM | [19] > 100 µM | [17] > 100 µM

COc1ccccc1C(=O)NO
> 100 µM: [18]
inactive: [1] > 100 µM | [20] > 100 µM | [3] > 100 µM | [4] > 100 µM | [5] > 100 µM | [6] > 100 µM | [7] > 100 µM | [8] > 100 µM | [9] > 100 µM | [10] > 100 µM | [12] > 100 µM | [13] > 100 µM | [14] > 100 µM | [15] > 100 µM | [16] > 100 µM | [19] 49.1 µM | [17] > 100 µM

COc1cccc(Cc2cc(=O)c3ccc(C)nc3[nH]2)c1
> 100 µM: [18]
inactive: [1] > 100 µM | [20] > 100 µM | [3] > 100 µM | [4] > 100 µM | [5] > 100 µM | [6] > 100 µM | [7] > 100 µM | [8] > 100 µM | [9] > 100 µM | [10] > 100 µM | [11] 73.5 µM | [12] > 100 µM | [14] > 100 µM | [15] 94.8 µM | [16] 48.6 µM | [19] 13.2 µM | [17] 60.1 µM

C=C1C(=O)OC2CCN3CC=C(COC(=O)C(C)(O)C4(CO4)C1C)C23 (stereo not given)
inactive: [20] > 100 µM | [3] > 100 µM | [4] > 100 µM | [5] > 100 µM | [6] > 100 µM | [8] > 100 µM | [9] > 100 µM | [10] > 100 µM | [11] > 100 µM | [13] > 100 µM | [14] > 100 µM | [15] > 100 µM | [19] > 100 µM | [17] > 100 µM
> 100 µM: [18]

CN(/N=C/C=N/N(C)C1=NCCN1)C1=NCCN1
> 100 µM: [18]
inactive: [1] > 100 µM | [20] > 100 µM | [2] > 100 µM | [3] > 100 µM | [4] > 100 µM | [5] > 100 µM | [6] > 100 µM | [7] > 100 µM | [8] > 100 µM | [9] > 100 µM | [10] > 100 µM | [12] > 100 µM | [13] > 100 µM | [14] > 100 µM | [15] > 100 µM | [19] > 100 µM | [17] > 100 µM

COC(c1ccsc1)C(C#N)(C#N)/N=C/c1ccsc1 (stereo not given)
13 µM: [18]
inactive: [1] 20.9 µM | [20] 10.3 µM | [2] 15.7 µM | [3] 17.3 µM | [4] 30.5 µM | [5] 17.1 µM | [6] 14.6 µM | [7] 17.4 µM | [8] 16.5 µM | [9] 13.4 µM | [10] 7.4 µM | [11] 14.9 µM | [12] 12.6 µM | [13] 18.7 µM | [14] 16 µM | [15] 17 µM | [19] 6.73 µM | [17] 22.1 µM
